System: 292921-168-R-J2-PDC complex spheroid growth
Test: Anticancer human tumor 292921-168-R-J2-PDC patient-derived pancreatic carcinoma cell line growth inhibition [AhR]
Conditions: for IC50: curve of first compound; for viability, T/C: stronger effect = lower value
Outline: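 Agents were dosed in half-log steps down from roughly clinical Cmax, or from 10 microM where Cmax was unknown, alone and with AhR antagonists. Read-out: percent test/control growth of tumor spheroids containing HUVEC and MSC stromal cells.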

[1] = second compound 0.1 µM, first compound 0.0316 µM
[2] = second compound 0.1 µM, first compound 0.1 µM
[3] = second compound 0.1 µM, first compound 0.316 µM
[4] = second compound 0.1 µM, first compound 1 µM
[5] = second compound 0.1 µM, first compound 3.16 µM
[6] = second compound 0.1 µM, first compound 10 µM
[7] = second compound 0.316 µM, first compound 0.0316 µM
[8] = second compound 0.316 µM, first compound 0.1 µM
[9] = second compound 0.316 µM, first compound 0.316 µM
[10] = second compound 0.316 µM, first compound 1 µM
[11] = second compound 0.316 µM, first compound 3.16 µM
[12] = second compound 0.316 µM, first compound 10 µM
[13] = second compound 1 µM, first compound 0.0316 µM
[14] = second compound 1 µM, first compound 0.1 µM
[15] = second compound 1 µM, first compound 0.316 µM
[16] = second compound 1 µM, first compound 1 µM
[17] = second compound 1 µM, first compound 3.16 µM
[18] = second compound 1 µM, first compound 10 µM
[19] = second compound 3.16 µM, first compound 0.0316 µM
[20] = second compound 3.16 µM, first compound 0.1 µM
[21] = second compound 3.16 µM, first compound 0.316 µM
[22] = second compound 3.16 µM, first compound 1 µM
[23] = second compound 3.16 µM, first compound 3.16 µM
[24] = second compound 3.16 µM, first compound 10 µM
[25] = second compound 10 µM, first compound 0.0316 µM
[26] = second compound 10 µM, first compound 0.1 µM
[27] = second compound 10 µM, first compound 0.316 µM
[28] = second compound 10 µM, first compound 1 µM
[29] = second compound 10 µM, first compound 3.16 µM
[30] = second compound 10 µM, first compound 10 µM
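Further: spheroids exposed to compounds for seven days after three days of growth.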

SMILES: COc1cc(C2c3cc4c(cc3C(OC3OC5COC(C)OC5C(O)C3O)C3COC(=O)C23)OCO4)cc(OC)c1O (stereo not given) + CC(CO)NC(=O)c1cc(-c2ccc(Cl)cc2)nn(-c2cnn(C)c2)c1=O
- IC50 (second compound 0.1 µM): 645 nM
- IC50 (second compound 0.316 µM): 563 nM
- IC50 (second compound 1 µM): 542 nM
- IC50 (second compound 3.16 µM): 421 nM
- IC50 (second compound 10 µM): 163 nM
- viability, T/C [1]: 95.7%
- viability, T/C [2]: 92.4%
- viability, T/C [3]: 67.9%
- viability, T/C [4]: 38%
- viability, T/C [5]: 22.6%
- viability, T/C [6]: 13.7%
- viability, T/C [7]: 89.3%
- viability, T/C [8]: 85.5%
- viability, T/C [9]: 65%
- viability, T/C [10]: 33.6%
- viability, T/C [11]: 24.4%
- viability, T/C [12]: 13.7%
- viability, T/C [13]: 98.8%
- viability, T/C [14]: 90.9%
- viability, T/C [15]: 61.7%
- viability, T/C [16]: 34.4%
- viability, T/C [17]: 24.6%
- viability, T/C [18]: 13.7%
- viability, T/C [19]: 85.1%
- viability, T/C [20]: 75%
- viability, T/C [21]: 56.3%
- viability, T/C [22]: 31.3%
- viability, T/C [23]: 22.4%
- viability, T/C [24]: 11.8%
- viability, T/C [25]: 60.9%
- viability, T/C [26]: 60%
- viability, T/C [27]: 38.8%
- viability, T/C [28]: 27.4%
- viability, T/C [29]: 19.6%
- viability, T/C [30]: 11.4%

SMILES: CC1COCCN1c1cc(-c2ccnn2C)c2ccnc(-c3ccn[nH]3)c2n1 (stereo not given) + Cc1ccccc1N=Nc1ccc(NC(=O)c2ccnn2C)c(C)c1
- IC50 (second compound 0.1 µM): 38.5 nM
- IC50 (second compound 0.316 µM): 43.9 nM
- IC50 (second compound 1 µM): 33.1 nM
- IC50 (second compound 3.16 µM): 20 nM
- IC50 (second compound 10 µM): 13.2 nM
- viability, T/C (second compound 0.1 µM, first compound 0.00316 µM): 95.7%
- viability, T/C (second compound 0.1 µM, first compound 0.01 µM): 86.6%
- viability, T/C [1]: 54.5%
- viability, T/C [2]: 26.6%
- viability, T/C [3]: 18.5%
- viability, T/C [4]: 15.5%
- viability, T/C (second compound 0.316 µM, first compound 0.00316 µM): 90.8%
- viability, T/C (second compound 0.316 µM, first compound 0.01 µM): 81.6%
- viability, T/C [7]: 58.9%
- viability, T/C [8]: 28.8%
- viability, T/C [9]: 18%
- viability, T/C [10]: 16.2%
- viability, T/C (second compound 1 µM, first compound 0.00316 µM): 83.4%
- viability, T/C (second compound 1 µM, first compound 0.01 µM): 74.3%
- viability, T/C [13]: 51.8%
- viability, T/C [14]: 25%
- viability, T/C [15]: 19.3%
- viability, T/C [16]: 15.7%
- viability, T/C (second compound 3.16 µM, first compound 0.00316 µM): 79.2%
- viability, T/C (second compound 3.16 µM, first compound 0.01 µM): 68.1%
- viability, T/C [19]: 37.3%
- viability, T/C [20]: 23.2%
- viability, T/C [21]: 16.7%
- viability, T/C [22]: 13.8%
- viability, T/C (second compound 10 µM, first compound 0.00316 µM): 57.8%
- viability, T/C (second compound 10 µM, first compound 0.01 µM): 57%
- viability, T/C [25]: 29.8%
- viability, T/C [26]: 25.1%
- viability, T/C [27]: 19.2%
- viability, T/C [28]: 15.8%

SMILES: COc1cc(Nc2ncc3c(n2)-c2ccc(Cl)cc2C(c2c(F)cccc2OC)=NC3)ccc1C(=O)O + Cc1ccccc1N=Nc1ccc(NC(=O)c2ccnn2C)c(C)c1
- IC50 (second compound 0.1 µM): < 31.6 nM
- IC50 (second compound 0.316 µM): < 31.6 nM
- IC50 (second compound 1 µM): < 31.6 nM
- IC50 (second compound 3.16 µM): < 31.6 nM
- IC50 (second compound 10 µM): < 31.6 nM
- viability, T/C [1]: 45.7%
- viability, T/C [2]: 37.9%
- viability, T/C [3]: 53.5%
- viability, T/C [4]: 45.1%
- viability, T/C [5]: 39.8%
- viability, T/C [6]: 29.1%
- viability, T/C [7]: 42.2%
- viability, T/C [8]: 42.6%
- viability, T/C [9]: 43%
- viability, T/C [10]: 41%
- viability, T/C [11]: 36.8%
- viability, T/C [12]: 30.3%
- viability, T/C [13]: 46.2%
- viability, T/C [14]: 34.2%
- viability, T/C [15]: 45.8%
- viability, T/C [16]: 42.7%
- viability, T/C [17]: 40.9%
- viability, T/C [18]: 24%
- viability, T/C [19]: 32.8%
- viability, T/C [20]: 35%
- viability, T/C [21]: 40.6%
- viability, T/C [22]: 36.5%
- viability, T/C [23]: 34.8%
- viability, T/C [24]: 23.1%
- viability, T/C [25]: 34%
- viability, T/C [26]: 35.5%
- viability, T/C [27]: 33.4%
- viability, T/C [28]: 33.8%
- viability, T/C [29]: 30%
- viability, T/C [30]: 20.5%

SMILES: CCc1c2c(nc3ccc(O)cc13)-c1cc3c(c(=O)n1C2)COC(=O)[C@]3(O)CC + CC(CO)NC(=O)c1cc(-c2ccc(Cl)cc2)nn(-c2cnn(C)c2)c1=O
- IC50 (second compound 0.1 µM): 1.79 nM
- IC50 (second compound 0.316 µM): < 0.949 nM
- IC50 (second compound 1 µM): 1.02 nM
- IC50 (second compound 3.16 µM): < 0.949 nM
- IC50 (second compound 10 µM): < 0.949 nM
- viability, T/C (second compound 0.1 µM, first compound 0.000949 µM): 55.6%
- viability, T/C (second compound 0.1 µM, first compound 0.003 µM): 46.4%
- viability, T/C (second compound 0.1 µM, first compound 0.00949 µM): 20.9%
- viability, T/C (second compound 0.1 µM, first compound 0.03 µM): 12.4%
- viability, T/C (second compound 0.1 µM, first compound 0.0949 µM): 5.44%
- viability, T/C (second compound 0.1 µM, first compound 0.3 µM): 3.22%
- viability, T/C (second compound 0.316 µM, first compound 0.000949 µM): 49.2%
- viability, T/C (second compound 0.316 µM, first compound 0.003 µM): 42%
- viability, T/C (second compound 0.316 µM, first compound 0.00949 µM): 22.7%
- viability, T/C (second compound 0.316 µM, first compound 0.03 µM): 12%
- viability, T/C (second compound 0.316 µM, first compound 0.0949 µM): 6.1%
- viability, T/C (second compound 0.316 µM, first compound 0.3 µM): 3.45%
- viability, T/C (second compound 1 µM, first compound 0.000949 µM): 49.8%
- viability, T/C (second compound 1 µM, first compound 0.003 µM): 43.3%
- viability, T/C (second compound 1 µM, first compound 0.00949 µM): 21.9%
- viability, T/C (second compound 1 µM, first compound 0.03 µM): 12.9%
- viability, T/C (second compound 1 µM, first compound 0.0949 µM): 7.22%
- viability, T/C (second compound 1 µM, first compound 0.3 µM): 3.97%
- viability, T/C (second compound 3.16 µM, first compound 0.000949 µM): 44.4%
- viability, T/C (second compound 3.16 µM, first compound 0.003 µM): 32.9%
- viability, T/C (second compound 3.16 µM, first compound 0.00949 µM): 21.2%
- viability, T/C (second compound 3.16 µM, first compound 0.03 µM): 11.3%
- viability, T/C (second compound 3.16 µM, first compound 0.0949 µM): 6.34%
- viability, T/C (second compound 3.16 µM, first compound 0.3 µM): 3.5%
- viability, T/C (second compound 10 µM, first compound 0.000949 µM): 38.2%
- viability, T/C (second compound 10 µM, first compound 0.003 µM): 31.2%
- viability, T/C (second compound 10 µM, first compound 0.00949 µM): 20.5%
- viability, T/C (second compound 10 µM, first compound 0.03 µM): 12%
- viability, T/C (second compound 10 µM, first compound 0.0949 µM): 6.27%
- viability, T/C (second compound 10 µM, first compound 0.3 µM): 4.4%
